Results from ChEMBL document CHEMBL1201861, “Genomics of Drug Sensitity in Cancer screening data, Wellcome Trust Sanger Institute”.

Key:
Experiment in all cases: cells
COR-L88 = type: functional, cell-based; conditions: Homo sapiens;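 also: growth inhibition of COR-L88 cells, read out with a cell viability assay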
Description: SANGER: Inhibition of human COR-L88 cell growth in a cell viability assay.

CTB-1 = type: functional, cell-based; conditions: Homo sapiens
Description: SANGER: Inhibition of human CTB-1 cell growth in a cell viability assay.

CTV-1 = type: functional, cell-based; conditions: Homo sapiens;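 also: growth inhibition of the cell line, read out with a cell viability assay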
Description: SANGER: Inhibition of human CTV-1 cell growth in a cell viability assay.

CaR-1 = type: functional, cell-based, Homo sapiens; conditions: Homo sapiens, CaR-1;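 also: growth inhibition of human CaR-1 cancer cells, read out with a cell viability assay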
Description: SANGER: Inhibition of human CaR-1 cell growth in a cell viability assay.

ChaGo-K-1 = type: functional, cell-based; conditions: Homo sapiens;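 also: growth inhibition of ChaGo-K-1 cells, read out with a cell viability assay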
Description: SANGER: Inhibition of human ChaGo-K-1 cell growth in a cell viability assay.

EGI-1 = type: functional, cell-based, Homo sapiens; conditions: Homo sapiens, EGI-1;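 also: cell viability readout used to gauge growth inhibition of EGI-1 cells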
Description: SANGER: Inhibition of human EGI-1 cell growth in a cell viability assay.

G-401 = type: functional, cell-based, Homo sapiens; conditions: Homo sapiens, G-401
Description: SANGER: Inhibition of human G-401 cell growth in a cell viability assay.

HCC1806 = type: functional, cell-based, Homo sapiens; conditions: Homo sapiens, HCC1806;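 also: growth inhibition of the cancer cell line, determined with a cell viability assay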
Description: SANGER: Inhibition of human HCC1806 cell growth in a cell viability assay.

HCC 2998 = type: functional, cell-based, Homo sapiens; conditions: Homo sapiens, HCC 2998;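 also: growth inhibition of human HCC2998 cells, measured with a cell viability read-out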
Description: SANGER: Inhibition of human HCC2998 cell growth in a cell viability assay.

HT1197 = type: functional, cell-based, Homo sapiens, HT-1197; conditions: Homo sapiens, HT1197
Description: SANGER: Inhibition of human HT-1197 cell growth in a cell viability assay.

HT-1376 = type: functional, cell-based, Homo sapiens; conditions: Homo sapiens, HT-1376
Description: SANGER: Inhibition of human HT-1376 cell growth in a cell viability assay.

HuCCT-1 = type: functional, cell-based, Homo sapiens, HuCCT1; conditions: Homo sapiens, HuCCT-1;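 also: growth inhibition of HuCCT-1 cells, read out by a cell viability assay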
Description: SANGER: Inhibition of human HuCCT1 cell growth in a cell viability assay.

Huh-7 = type: functional, cell-based, Homo sapiens; conditions: Homo sapiens, Huh-7;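 also: HuH-7 cell growth inhibition, read out with a cell viability assay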
Description: SANGER: Inhibition of human HuH-7 cell growth in a cell viability assay.

KE-37 = type: functional, cell-based; conditions: Homo sapiens;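 also: growth inhibition of KE-37 cells, read out with a cell viability assay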
KGN = type: functional, cell-based, Homo sapiens; conditions: Homo sapiens, KGN;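 also: growth inhibition of KGN cells, read out with a cell viability assay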
KM12 = type: functional, cell-based, Homo sapiens; conditions: Homo sapiens, KM12;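 also: KM12 cell growth inhibition, read out with a cell viability assay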
Description: SANGER: Inhibition of human KM12 cell growth in a cell viability assay.

KNS-81-FD = type: functional, cell-based, Homo sapiens; conditions: Homo sapiens, KNS-81-FD;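 also: growth inhibition of KNS-81-FD cells, read out with a cell viability assay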
Description: SANGER: Inhibition of human KNS-81-FD cell growth in a cell viability assay.

KYSE-140 = type: functional, cell-based, Homo sapiens; conditions: Homo sapiens, KYSE-140;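 also: cell viability assay measuring growth inhibition in human KYSE-140 cells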
Description: SANGER: Inhibition of human KYSE-140 cell growth in a cell viability assay.

LCLC-103H cell line = type: functional, cell-based, Homo sapiens; conditions: Homo sapiens, LCLC-103H
Description: SANGER: Inhibition of human LCLC-103H cell growth in a cell viability assay.

LU-99A = type: functional, cell-based, Homo sapiens; conditions: Homo sapiens, LU-99A;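 also: growth inhibition of LU-99A cells, read out with a cell viability assay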
Description: SANGER: Inhibition of human LU-99A cell growth in a cell viability assay.

MC116 = type: functional, cell-based; conditions: Homo sapiens;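 also: growth inhibition of MC116 cells, read out with a cell viability assay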
Description: SANGER: Inhibition of human MC116 cell growth in a cell viability assay.

MDA-MB-415 = type: functional, cell-based; conditions: Homo sapiens
NB12 = type: functional, cell-based, Homo sapiens; conditions: Homo sapiens, NB12;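 also: growth inhibition of human NB12 cells, read out by a cell viability assay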
Description: SANGER: Inhibition of human NB12 cell growth in a cell viability assay.

NB17 = type: functional, cell-based; conditions: Homo sapiens;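 also: growth inhibition of NB17 cells, read out with a cell viability assay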
Description: SANGER: Inhibition of human NB17 cell growth in a cell viability assay.

NB69 = type: functional, cell-based, Homo sapiens; conditions: Homo sapiens, NB69;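 also: growth inhibition of NB69 cells, determined by a cell viability assay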
Description: SANGER: Inhibition of human NB69 cell growth in a cell viability assay.

NCI-H1563 = type: functional, cell-based, Homo sapiens; conditions: Homo sapiens, NCI-H1563;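 also: growth inhibition of human NCI-H1563 cells, read out with a cell viability assay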
Description: SANGER: Inhibition of human NCI-H1563 cell growth in a cell viability assay.

NCI-H1693 = type: functional, cell-based, Homo sapiens; conditions: Homo sapiens, NCI-H1693;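 also: growth inhibition of the human cell line, read out with a cell viability assay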
Description: SANGER: Inhibition of human NCI-H1693 cell growth in a cell viability assay.

NCI-H1755 = type: functional, cell-based, Homo sapiens; conditions: Homo sapiens, NCI-H1755;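 also: cell viability readout used to measure growth inhibition of NCI-H1755 cells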
Description: SANGER: Inhibition of human NCI-H1755 cell growth in a cell viability assay.

NCI-H1993 = type: functional, cell-based, Homo sapiens; conditions: Homo sapiens, NCI-H1993;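 also: growth inhibition of the cancer cell line, assessed with a cell viability assay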
Description: SANGER: Inhibition of human NCI-H1993 cell growth in a cell viability assay.

NCI-H23 = type: functional, cell-based, Homo sapiens; conditions: Homo sapiens, NCI-H23
NCI-H2342 = type: functional, cell-based; conditions: Homo sapiens;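 also: growth inhibition of the cancer cell line, determined with a cell viability assay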
Description: SANGER: Inhibition of human NCI-H2342 cell growth in a cell viability assay.

NCI-H650 = type: functional, cell-based, Homo sapiens; conditions: Homo sapiens, NCI-H650;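 also: growth inhibition of NCI-H650 cells, read out by a viability assay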
Description: SANGER: Inhibition of human NCI-H650 cell growth in a cell viability assay.

OAW-28 = type: functional, cell-based, Homo sapiens; conditions: Homo sapiens, OAW-28;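 also: growth inhibition of OAW-28 cells, read out with a cell viability assay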
Description: SANGER: Inhibition of human OAW-28 cell growth in a cell viability assay.

OAW-42 = type: functional, cell-based, Homo sapiens; conditions: Homo sapiens, OAW-42;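 also: growth inhibition of OAW-42 cells, read out with a cell viability assay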
Description: SANGER: Inhibition of human OAW-42 cell growth in a cell viability assay.

PSN1 = type: functional, cell-based, Homo sapiens; conditions: Homo sapiens, PSN1;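 also: suppression of growth of human PSN1 cells, read out by a cell viability assay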
Description: SANGER: Inhibition of human PSN1 cell growth in a cell viability assay.

SBC-5 = type: functional, cell-based, Homo sapiens; conditions: Homo sapiens, SBC-5;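 also: cell viability assay read-out, IC50 is the concentration that inhibits growth of the cells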
Description: SANGER: Inhibition of human SBC-5 cell growth in a cell viability assay.

SCC-15 = type: functional, cell-based, Homo sapiens; conditions: Homo sapiens, SCC-15;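 also: growth inhibition of SCC-15 cells, read out with a cell viability assay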
Description: SANGER: Inhibition of human SCC-15 cell growth in a cell viability assay.

SHP77 = type: functional, cell-based, Homo sapiens, SHP-77; conditions: Homo sapiens, SHP77;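 also: growth inhibition of human SHP-77 cells measured by a cell viability assay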
Description: SANGER: Inhibition of human SHP-77 cell growth in a cell viability assay.

SJSA-1 = type: functional, cell-based, Homo sapiens; conditions: Homo sapiens, SJSA-1;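 also: growth inhibition of human SJSA-1 cells, read out through a cell viability measurement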
Description: SANGER: Inhibition of human SJSA-1 cell growth in a cell viability assay.

8505C = type: functional, cell-based, Homo sapiens; conditions: Homo sapiens, 8505C
Description: SANGER: Inhibition of human 8505C cell growth in a cell viability assay.

A101D = type: functional, cell-based, Homo sapiens; conditions: Homo sapiens, A101D;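 also: growth inhibition of the cell line, measured with a viability assay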
Description: SANGER: Inhibition of human A101D cell growth in a cell viability assay.

A 172 = type: functional, cell-based, Homo sapiens; conditions: Homo sapiens, A 172;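 also: growth inhibition of A172 cells, measured with a cell viability readout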
A498 = type: functional, cell-based, Homo sapiens; conditions: Homo sapiens, A498;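 also: growth inhibition of human A498 cells, read out with a cell viability assay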
Description: SANGER: Inhibition of human A498 cell growth in a cell viability assay.

A673 = type: functional, cell-based, Homo sapiens; conditions: Homo sapiens, A673;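 also: growth inhibition of human A673 cells, read out through a cell viability assay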
Description: SANGER: Inhibition of human A673 cell growth in a cell viability assay.

ABC-1 = type: functional, cell-based, Homo sapiens; conditions: Homo sapiens, ABC-1;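 also: growth inhibition of human ABC-1 cells, read out by a cell viability assay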
Description: SANGER: Inhibition of human ABC-1 cell growth in a cell viability assay.

BV-173 = type: functional, cell-based; conditions: Homo sapiens
Description: SANGER: Inhibition of human BV-173 cell growth in a cell viability assay.

C8166 = type: functional, cell-based; conditions: Homo sapiens;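 also: growth inhibition of human C8166 cells measured by a cell viability assay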
Description: SANGER: Inhibition of human C8166 cell growth in a cell viability assay.

CAL-33 = type: functional, cell-based, Homo sapiens; conditions: Homo sapiens, CAL-33;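 also: growth inhibition of CAL-33 cells, read out with a cell viability assay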
Description: SANGER: Inhibition of human CAL-33 cell growth in a cell viability assay.

CAL-72 = type: functional, cell-based, Homo sapiens; conditions: Homo sapiens, CAL-72;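 also: cell viability assay measuring inhibition of proliferation in the CAL-72 cell line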
Description: SANGER: Inhibition of human CAL-72 cell growth in a cell viability assay.

WM-115 = type: functional, cell-based, Homo sapiens; conditions: Homo sapiens, WM-115
Description: SANGER: Inhibition of human WM-115 cell growth in a cell viability assay.

COLO-668 = type: functional, cell-based, Homo sapiens; conditions: Homo sapiens, COLO-668
Description: SANGER: Inhibition of human COLO-668 cell growth in a cell viability assay.

In the case of CN(C)C/C=C/C(=O)Nc1cc2c(Nc3ccc(F)c(Cl)c3)ncnc2cc1O[C@H]1CCOC1 [AFATINIB], the IC50 (COR-L88) is reported as over 0.5 µM, the IC50 (CTB-1) is reported as over 0.5 µM and the IC50 (CTV-1) is reported as over 0.5 µM. For the same molecule, the IC50 (CaR-1) was over 0.5 µM, the IC50 (ChaGo-K-1) was over 0.5 µM and the IC50 (EGI-1) was over 0.5 µM. For the same molecule, the IC50 (G-401) was over 0.5 µM, the IC50 (HCC1806) was over 0.5 µM and the IC50 (HCC 2998) was over 0.5 µM. For the same molecule, the IC50 (HT1197) was over 0.5 µM, the IC50 (HT-1376) was over 0.5 µM and the IC50 (HuCCT-1) was over 0.5 µM. For the same molecule, the IC50 (Huh-7) was over 0.5 µM, the IC50 (KE-37) was over 0.5 µM and the IC50 (KGN) was over 0.5 µM. It also gave an IC50 (KM12) of over 0.5 µM, an IC50 (KNS-81-FD) of over 0.5 µM and an IC50 (KYSE-140) of 0.0833 µM. For the same molecule, the IC50 (LCLC-103H cell line) was over 0.5 µM, the IC50 (LU-99A) was over 0.5 µM and the IC50 (MC116) was over 0.5 µM. For the same molecule, the IC50 (MDA-MB-415) was over 0.5 µM, the IC50 (NB12) was over 0.5 µM and the IC50 (NB17) was over 0.5 µM. The IC50 (NB69) was over 0.5 µM, the IC50 (NCI-H1563) was over 0.5 µM and the IC50 (NCI-H1693) was over 0.5 µM. It also gave an IC50 (NCI-H1755) of over 0.5 µM, an IC50 (NCI-H1993) of over 0.5 µM and an IC50 (NCI-H23) of over 0.5 µM. For the same molecule, the IC50 (NCI-H2342) was over 0.5 µM, the IC50 (NCI-H650) was over 0.5 µM and the IC50 (OAW-28) was over 0.5 µM. For the same molecule, the IC50 (OAW-42) was over 0.5 µM, the IC50 (PSN1) was over 0.5 µM and the IC50 (SBC-5) was over 0.5 µM. The IC50 (SCC-15) was over 0.5 µM, the IC50 (SHP77) was over 0.5 µM and the IC50 (SJSA-1) was over 0.5 µM. It also gave an IC50 (8505C) of over 0.5 µM, an IC50 (A101D) of over 0.5 µM and an IC50 (A 172) of over 0.5 µM. The IC50 (A498) was 0.407 µM, the IC50 (A673) was over 0.5 µM and the IC50 (ABC-1) was over 0.5 µM. For the same molecule, the IC50 (BV-173) was 0.176 µM, the IC50 (C8166) was over 0.5 µM and the IC50 (CAL-33) was 0.202 µM. For the same molecule, the IC50 (CAL-72) was over 0.5 µM, the IC50 (WM-115) was over 0.5 µM and the IC50 (COLO-668) was over 0.5 µM.

For O=C(NOCC1CC1)c1ccc(F)c(F)c1Nc1ccc(I)cc1Cl [CI-1040], the IC50 (COR-L88) was over 10 µM, the IC50 (CTB-1) was 3.47 µM and the IC50 (CTV-1) was over 10 µM. For the same molecule, the IC50 (CaR-1) was over 10 µM, the IC50 (ChaGo-K-1) was over 10 µM and the IC50 (EGI-1) was 3.61 µM. The IC50 (G-401) was over 10 µM, the IC50 (HCC1806) was over 10 µM and the IC50 (HCC 2998) was 5.49 µM. The IC50 (HT1197) was over 10 µM, the IC50 (HT-1376) was over 10 µM and the IC50 (HuCCT-1) was 7.01 µM. It also gave an IC50 (Huh-7) of 5.27 µM, an IC50 (KE-37) of over 10 µM and an IC50 (KGN) of 9.84 µM. The IC50 (KM12) was 0.241 µM, the IC50 (KNS-81-FD) was over 10 µM and the IC50 (KYSE-140) was 6.02 µM. For the same molecule, the IC50 (LCLC-103H cell line) was over 10 µM, the IC50 (LU-99A) was 5.66 µM and the IC50 (MC116) was over 10 µM. The IC50 (MDA-MB-415) was over 10 µM, the IC50 (NB12) was over 10 µM and the IC50 (NB17) was over 10 µM. The IC50 (NB69) was 1.78 µM, the IC50 (NCI-H1563) was over 10 µM and the IC50 (NCI-H1693) was 8.92 µM. It also gave an IC50 (NCI-H1755) of over 10 µM, an IC50 (NCI-H1993) of over 10 µM and an IC50 (NCI-H23) of over 10 µM. For the same molecule, the IC50 (NCI-H2342) was over 10 µM, the IC50 (NCI-H650) was over 10 µM and the IC50 (OAW-28) was over 10 µM. The IC50 (OAW-42) was over 10 µM, the IC50 (PSN1) was 0.962 µM and the IC50 (SBC-5) was over 10 µM. For the same molecule, the IC50 (SCC-15) was over 10 µM, the IC50 (SHP77) was over 10 µM and the IC50 (SJSA-1) was over 10 µM. For the same molecule, the IC50 (8505C) was 3.9 µM, the IC50 (A101D) was 0.214 µM and the IC50 (A 172) was 6.49 µM. The IC50 (A498) was over 10 µM, the IC50 (A673) was 8.63 µM and the IC50 (ABC-1) was over 10 µM. The IC50 (BV-173) was 1.44 µM, the IC50 (C8166) was over 10 µM and the IC50 (CAL-33) was 5.12 µM. It also gave an IC50 (CAL-72) of over 10 µM, an IC50 (WM-115) of 0.493 µM and an IC50 (COLO-668) of over 10 µM.
